In patent US20020165221A1, “Mediators of hedgehog signaling pathways, compositions and uses related thereto” (priority 2000, published 2002):

The compounds below were run on Hedgehog pathway (assay: Gli-Luc assay (Hedgehog-responsive Luciferase reporter), 10T1/2(s12) cells with OCT-SHH). Conditions: OCT-SHH 0.3 μg/ml.
Assay type: cell-based
Method: Compounds to be tested are dissolved in DMSO to a concentration of 10 MM, and stored at −20° C. To activate the Hedgehog pathway in the assay cells, an octylated (lipid-modified) form of the N-terminal fragment of the Sonic Hedgehog protein (OCT-SHH) is used. This N-terminal SHH fragment is produced bacterially.
Compounds may be tested in the “Gli-Luc” assay below, using the cell line 10T(s12), wherein the cells contain a Hedgehog-responsive reporter construct utilizing Luciferase as the reporter gene. In this way, Hedgehog pathway signaling activity can be measured via the Gli-Luc response.
10t1/2(s12) cells are plated in a 96-well micro-titer plate (MTP) at 20,000 cells/well in full medium [DMEM with 10% FBS]. Then plates are placed in the incubator for incubation overnight (O/N), at 37° C. and 5% CO2. After 24 h, the medium is replaced with Luciferase-assay medium (DMEM with 0.5% FBS). Compounds are thawed and diluted in assay medium at 3:1000 (about 300-fold) resulting in a starting concentration of about 30 μM.
Subsequently, 150 μl of each 30 μM sample is added to the first wells (in triplicate). The MTP samples are then diluted at 3-fold dilutions to a total of seven wells, ultimately resulting in a regiment of seven dilutions in triplicate, for each compound. Next, the protein ligand OCT-SHH is diluted in Luciferase-assay medium and added to each well at a final concentration of 0.3 μg/ml. Plates are then returned to the incubator for further incubation O/N, at 37° C. and 5% CO2. After about 24 h, plates are removed from the incubator and the medium is aspirated/discarded. Wells are washed once with assay buffer [PBS +1 mM Mg^2+and 1 mM Ca^2+]. Then 50 μl of assay buffer is added to each well. The Luciferase assay reagent is prepared as described by the vendor (LucLite kit from Packard), and 50 μl is added to each well. Plates are incubated at room temperature (RT) for about 30 minutes after which the signals are read, again at RT, on a Topcount (Packard).

Row | IC50 | Compound
1 | < 1000 nM | COc1cccc(CN2CC(N(Cc3cccc(OC)c3)C(=O)CC(C)(C)C)CC2C(=O)N2CCNCC2)c1 (centres unmarked) [F]
2 | < 1000 nM | CCc1ccc(CN2CC(N(Cc3cccc(OC)c3)C(=O)CC(C)(C)C)CC2C(=O)N2CCNCC2)s1 (centres unmarked) [A″]
3 | < 10000 nM | COCC(=O)N(Cc1cccc(OC)c1)[C@H]1C[C@@H](C(=O)N2CCNCC2)N(Cc2ccc3c(c2)OCO3)C1 [P″]
4 | < 10000 nM | COc1cccc(CN(C(=O)CC(C)(C)C)C2CC(C(=O)N3CCNCC3)N(Cc3ccc(F)cc3)C2)c1 (centres unmarked) [X]
5 | < 1000 nM | CC(C)CC(=O)N(Cc1cccc(C#N)c1)C1CC(C(=O)N2CCNCC2)N(Cc2ccc3c(c2)OCO3)C1 (centres unmarked) [S″]
6 | < 10000 nM | CC(C)CC(=O)N(Cc1cccc([N+](=O)[O-])c1)C1CC(C(=O)N2CCNCC2)N(Cc2ccc3c(c2)OCO3)C1 (centres unmarked) [U″]
7 | < 1000 nM | COc1cccc(CN(C(=O)CC(C)C)C2CC(C(=O)N3CCNCC3)N(Cc3ccc4c(c3)OCCO4)C2)c1 (centres unmarked) [R′]
8 | < 100 nM | COc1cccc(CN(C(=O)CC2CC2)[C@H]2C[C@@H](C(=O)N3CCNCC3)N(Cc3ccc4c(c3)OCO4)C2)c1 [J″]
9 | < 10000 nM | COc1cccc(CN(C(=O)CC(C)(C)C)[C@H]2C[C@@H](C(=O)N3CCNCC3)N(Cc3ccc(C=O)s3)C2)c1 [H″]
10 | < 1000 nM | COc1cccc(CN(C(=O)C2CCCC2)C2CC(C(=O)N3CCNCC3)N(Cc3ccc4c(c3)OCCO4)C2)c1 (centres unmarked) [W′]
11 | < 1000 nM | COc1cccc(CN(C(=O)c2cccs2)C2CC(C(=O)N3CCNCC3)N(Cc3ccc(C)s3)C2)c1 (centres unmarked) [A]
12 | < 10000 nM | COc1cccc(CN(C(=O)CC(C)(C)C)[C@H]2C[C@@H](C(=O)N(C)C3CCNC3)N(Cc3ccc4c(c3)OCO4)C2)c1 (some centres unmarked) [D′″]
13 | < 10000 nM | Cc1ccc(CN2CC(N(CCc3ccccc3)Cc3ccc(F)cc3)CC2C(=O)NCCN)s1 (centres unmarked) [H′]
14 | < 1000 nM | COc1cccc(CN(C(=O)C2CCC2)C2CC(C(=O)N3CCNCC3)N(Cc3ccc(OC)c(OC)c3OC)C2)c1 (centres unmarked) [T′]
15 | < 10000 nM | COc1cccc(CN(C(=O)C(C)C)C2CC(C(=O)N3CCNCC3)N(Cc3ccc(OC)c(OC)c3OC)C2)c1 (centres unmarked) [P′]
16 | < 10000 nM | COc1cccc(CN(C(=O)c2ccco2)C2CC(C(=O)N3CCNCC3)N(Cc3ccc4c(c3)OCCO4)C2)c1 (centres unmarked) [Q′]
17 | < 100 nM | COc1cccc(CN(C(=O)C(C)C)C2CC(C(=O)N3CCNCC3)N(Cc3ccc(C)s3)C2)c1 (centres unmarked) [O]
18 | < 10000 nM | COc1cccc(CN2CC(N(CCc3ccccc3)Cc3ccccc3C)CC2C(=O)NCCN)c1 (centres unmarked) [G′]
19 | < 10000 nM | CC(C)CC(=O)N(Cc1cccc(OCc2ccccc2)c1)C1CC(C(=O)N2CCNCC2)N(Cc2ccc3c(c2)OCO3)C1 (centres unmarked) [Y″]
20 | < 1000 nM | COc1cccc(CN(C(=O)CC2CCCC2)C2CC(C(=O)N3CCNCC3)N(Cc3ccc4c(c3)OCO4)C2)c1 (centres unmarked) [K″]
21 | < 100 nM | COc1cccc(CN(C(=O)CC(C)(C)C)C2CC(C(=O)N3CCNCC3)N(Cc3ccc(OC)c(OC)c3OC)C2)c1 (centres unmarked) [K]
22 | < 10000 nM | COc1cccc(CN(C(=O)CC(C)(C)C)C2CC(C(=O)N3CCNCC3)N(Cc3cc4ccccc4n3C)C2)c1 (centres unmarked) [F″]

Row | IC50 | Compound
23 | < 1000 nM | CCNCCCN(CC)C(=O)[C@@H]1C[C@H](N(Cc2cccc(OC)c2)C(=O)CC(C)(C)C)CN1Cc1ccc2c(c1)OCO2 [F′″]
24 | < 1000 nM | Cc1cccc(CN(C(=O)CC(C)C)[C@H]2C[C@@H](C(=O)N3CCNCC3)N(Cc3ccc4c(c3)OCO4)C2)c1 [R″]
25 | < 10000 nM | COc1cccc(CN(C(=O)CC(C)CCC=C(C)C)C2CC(C(=O)N3CCNCC3)N(Cc3ccc4c(c3)OCO4)C2)c1 (centres unmarked) [Q″]
26 | < 1000 nM | COc1cccc(CN(C(=O)CC(C)C(F)(F)F)C2CC(C(=O)N3CCNCC3)N(Cc3ccc4c(c3)OCO4)C2)c1 (centres unmarked) [L″]
27 | < 100 nM | COc1cccc(CN(C(=O)CC(C)C)C2CC(C(=O)N3CCNCC3)N(Cc3ccc(C)s3)C2)c1 (centres unmarked) [X′]
28 | < 1000 nM | COc1cccc(CN(C(=O)NC(C)C)[C@H]2C[C@@H](C(=O)N3CCNCC3)N(Cc3ccc4c(c3)OCO4)C2)c1 [O″]
29 | < 10000 nM | CC(C)CN(C(=O)c1cccs1)C1CC(C(=O)NC2CCC(N)CC2)N(CC2CCCCC2)C1 (centres unmarked) [J′]
30 | < 1000 nM | COc1cccc(CN(C(=O)CC(C)(C)C)[C@H]2C[C@@H](C(=O)N3CCN[C@@H](C)C3)N(Cc3ccc4c(c3)OCO4)C2)c1 [Z″]
31 | < 1000 nM | COc1cccc(CN(C(=O)CC(C)(C)C)C2CC(C(=O)N3CCNCC3)N(Cc3ccc4c(c3)OCO4)C2)c1 (centres unmarked) [M]
32 | < 10000 nM | Cc1ccccc1CN(CCc1ccccc1)C1CC(C(=O)NCC2CCC(CN)CC2)N(Cc2ccc3c(c2)OCO3)C1 (centres unmarked) [I′]
33 | < 1000 nM | COc1cccc(CN(C(=O)C2CC2)C2CC(C(=O)N3CCNCC3)N(Cc3ccc(F)cc3)C2)c1 (centres unmarked) [W]
34 | < 10000 nM | CC(C)(C)CC(=O)N(Cc1ccccc1)C1CC(C(=O)NCCN)N(CC2CCCCC2)C1 (centres unmarked) [Y]
35 | < 1000 nM | COc1cccc(CN(C(=O)C2CC2)C2CC(C(=O)N3CCNCC3)N(Cc3ccc(OC)c(OC)c3OC)C2)c1 (centres unmarked) [N′]
36 | < 1000 nM | COc1cccc(CN(C(=O)CC(C)(C)C)C2CC(C(=O)N3CCNCC3)N(Cc3cc4ccsc4s3)C2)c1 (centres unmarked) [Y′]
37 | < 100 nM | COc1cccc(CN(C(=O)C2CC2)C2CC(C(=O)N3CCNCC3)N(Cc3ccc4c(c3)OCO4)C2)c1 (centres unmarked) [E]
38 | < 10000 nM | O=C(C1CC(N(CC2CCCCC2)CC2CCCO2)CN1Cc1ccc(F)cc1)N1CCNCC1 (centres unmarked) [E′]
39 | < 10000 nM | CCC(=O)N(Cc1cccc(OC)c1)C1CC(C(=O)N2CCNCC2)N(Cc2ccc(OC)c(OC)c2OC)C1 (centres unmarked) [S′]
40 | < 10000 nM | CC(C)CC(=O)N(Cc1cccc(SC(F)(F)F)c1)C1CC(C(=O)N2CCNCC2)N(Cc2ccc3c(c2)OCO3)C1 (centres unmarked) [X″]
41 | < 100 nM | COc1cccc(CN(C(=O)NC(C)(C)C)[C@H]2C[C@@H](C(=O)N3CCNCC3)N(Cc3ccc4c(c3)OCO4)C2)c1 [I″]
42 | < 1000 nM | CC(C)CC(=O)N(Cc1cccc(O)c1)C1CC(C(=O)N2CCNCC2)N(Cc2ccc3c(c2)OCO3)C1 (centres unmarked) [T″]
43 | < 1000 nM | COc1cccc(CN(C(=O)CC(C)(C)C)C2CC(C(=O)N3CCNCC3)N(CC3CCCCC3)C2)c1 (centres unmarked) [T]
44 | < 1000 nM | O=C(C1CC(N(Cc2cccs2)C(=O)C2CC2)CN1Cc1ccc2c(c1)OCO2)N1CCNCC1 (centres unmarked) [V]

Row | IC50 | Compound
45 | < 10000 nM | COc1cccc(CN(C(=O)CC(C)(C)C)C2CC(C(=O)N3CCNCC3)N(Cc3cc(Br)cs3)C2)c1 (centres unmarked) [L]
46 | < 10000 nM | COc1cccc(CN(C(=O)CC(C)(C)C)[C@H]2C[C@@H](C(=O)N3CCNCC3)N(Cc3ccc(-c4cccs4)s3)C2)c1 [D″]
47 | < 1000 nM | COc1cccc(CN(C(=O)CC(C)(C)C)C2CC(C(=O)N3CCNCC3)N(Cc3ccccc3)C2)c1 (centres unmarked) [R]
48 | < 1000 nM | COc1cccc(CN(C(=O)CC(C)C)C2CC(C(=O)N3CCNCC3)N(Cc3ccsc3)C2)c1 (centres unmarked) [G]
49 | < 100 nM | COc1cccc(CN(C(=O)CC(C)C)C2CC(C(=O)N3CCNCC3)N(Cc3ccc4c(c3)OCCO4)C2)c1 (centres unmarked) [H]
50 | < 1000 nM | COc1cccc(CN(C(=O)CC(C)(C)C)[C@H]2C[C@@H](C(=O)N3CCNCC3)N(Cc3cc(C)c(C)o3)C2)c1 [G″]
51 | < 1000 nM | COc1cccc(CN(C(=O)C2CC2)C2CC(C(=O)N3CCNCC3)N(Cc3ccc(C)s3)C2)c1 (centres unmarked) [B]
52 | < 1000 nM | COc1cccc(CN(C(=O)CC(C)(C)C)C2CC(C(=O)N3CCNCC3)N(Cc3ccc(SC)s3)C2)c1 (centres unmarked) [Z′]
53 | < 1000 nM | COc1cccc(CN(C(=O)CC(C)(C)C)C2CC(C(=O)N3CCCNCC3)N(Cc3ccc4c(c3)OCO4)C2)c1 (centres unmarked) [Z]
54 | < 10000 nM | CCOc1cc(CN2CC(N(Cc3cccc(OC)c3)C(=O)CC(C)(C)C)CC2C(=O)N2CCNCC2)ccc1OC (centres unmarked) [K′]
55 | < 10000 nM | CCN1CCC(N(CC)C(=O)[C@@H]2C[C@H](N(Cc3cccc(OC)c3)C(=O)CC(C)(C)C)CN2Cc2ccc3c(c2)OCO3)C1 (some centres unmarked) [E′″]
56 | < 1000 nM | Cc1ccccc1CN(C(=O)CC(C)C)C1CC(C(=O)N2CCNCC2)N(Cc2ccc3c(c2)OCO3)C1 (centres unmarked) [V″]
57 | < 1000 nM | COc1cccc(CN(C(=O)CC(C)(C)C)[C@H]2C[C@@H](C(=O)NC3CCNCC3)N(Cc3ccc4c(c3)OCO4)C2)c1 [B′″]
58 | < 1000 nM | COc1cccc(CN(C(=O)CC(C)(C)C)C2CC(C(=O)N3CCNCC3)N(Cc3ccc4c(c3)OCO4)C2)c1 (centres unmarked) [N]
59 | < 100 nM | COc1cccc(CN(C(=O)CC(C)(C)C)C2CC(C(=O)N3CCNCC3)N(Cc3ccc(C)s3)C2)c1 (centres unmarked) [M′]
60 | < 1000 nM | COc1cccc(CN(C(=O)C2CC2)C2CC(C(=O)N3CCNCC3)N(CC3CCCCC3)C2)c1 (centres unmarked) [S]
61 | < 100 nM | COc1cccc(CN(C(=O)CC(C)(C)C)C2CC(C(=O)N3CCNCC3)N(Cc3ccc4c(c3)OCO4)C2)c1 (centres unmarked) [O′]
62 | < 1000 nM | COc1cccc(CN(C(=O)CC(C)(C)C)[C@H]2C[C@@H](C(=O)N3CCNCC3)N(Cc3ccc(Br)s3)C2)c1 [C″]
63 | < 10000 nM | COc1cccc(CN(C(=O)CC(C)(C)C)C2CC(C(=O)N3CCNCC3)N(Cc3ccc(-c4cc(C(F)(F)F)n(C)n4)s3)C2)c1 (centres unmarked) [E″]
64 | < 10000 nM | CC(C)CC(=O)N(Cc1ccccc1OC(F)F)C1CC(C(=O)N2CCNCC2)N(Cc2ccc3c(c2)OCO3)C1 (centres unmarked) [W″]
65 | < 100 nM | COc1cccc(CN(C(=O)CC(C)(C)C)C2CC(C(=O)N3CCNCC3)N(Cc3ccc4c(c3)OCCO4)C2)c1 (centres unmarked) [J]
